Measured values published in patent US20260159618A1, “COMPOUND, POLYMERIZABLE COMPOSITION, POLYMER, HOLOGRAPHIC RECORDING MEDIUM, OPTICAL MATERIAL, AND OPTICAL COMPONENT” (Mitsubishi Chemical Corporation, priority 2022, published 2026).
Like-named read-outs stand apart in the source and are kept apart here.

Key:
[1] = Solubility in Duranate TSS-100, visual observation; type: physicochemical; conditions: 0.63 g monomer dissolved in 2.53 g Duranate TSS-100, visually observed
Method: (§1) When 0.63 g of polymerizable monomers M-1 to M-11 and R-1 to R-4 were dissolved in 2.53 g of Duranate (registered trademark) TSS-100, the state of the solution was visually observed and the solubility was evaluated as ∘ (completely dissolved), Δ (cloudy), or x (solid remaining in solution). In addition, the state of each solution was visually observed when it was stored at room temperature for 10 days and the storage stability was evaluated as ∘ (completely dissolved), Δ (cloudy), or x (solid remaining in solution).

[2] = Refractive index measurement of polymerizable monomer (Kalnew precision refractometer); type: physicochemical; set-up: key to Refractive Index (dash symbol): ⊚: 0.019 or more; ◯: 0.015 or more and less than 0.019; Δ: 0.010 or more and less than 0.015; x: less than 0.010; —: impossible to measure; conditions: for Refractive Index: 23° C., helium lamp d-line (587.6 nm), calculated for 100% by mass from calibration curve of 10 and 20% by mass test solutions; for Refractive Index (dash symbol): sample not suitable for refractive index measurement
Method: The refractive index of the compound M-1 was measured using the following method. The refractive indexes of the polymerizable monomers produced in the Examples and Comparative Examples were also measured using the same method.
A test solution was prepared by dissolving the sample in a mixed solution of 3-phenoxybenzyl acrylate and trimethylolpropane trimethacrylate in a mass ratio of 4:1 to obtain the specified concentration.
Two types of test solutions were prepared, with sample concentrations of 10% by mass and 20% by mass.
The refractive index of each test solution was measured using a Kalnew precision refractometer (manufactured by Shimadzu Corporation, product name: KPR-2000). The temperature of the test solution was 23° C., and the measurement wavelength was helium lamp d-line (587.6 nm). Based on the measurement results, a calibration curve showing the correlation between sample concentration and refractive index was created, and the refractive index when the sample concentration was 100% by mass was calculated from the obtained calibration curve, and was taken as the refractive index of the sample.

[3] = Storage stability of the TSS-100 solution, visual observation; type: physicochemical; set-up: key: ∘: completely dissolved; Δ: cloudy; x: solid remaining in solution; conditions: solution in Duranate TSS-100 stored at room temperature for 10 days, visually observed
Method: as §1

[4] = prior-art compounds, background art; cited from earlier work

| SMILES | Solubility [1] | Refractive Index [2] | Storage Stability [3] | Refractive Index [4] | Refractive Index (dash symbol) [2] |
| --- | --- | --- | --- | --- | --- |
| C=CC(=O)OCCNC(=O)Oc1c(-c2cc3ccccc3c3ccccc23)cc(-c2cc3ccccc3c3ccccc23)cc1-c1cc2ccccc2c2ccccc12 [Compound M-4] | ◯ | 1.6894 | ◯ |  |  |
| C=C(C)C(=O)OCCOCCNC(=O)OCCOc1c(-c2cc3ccccc3c3ccccc23)cc(-c2cc3ccccc3c3ccccc23)cc1-c1cc2ccccc2c2ccccc12 [Compound M-9] | ◯ | 1.6975 | ◯ |  |  |
| C=CC(=O)OCCOc1c(-c2cc3ccccc3c3ccccc23)cc(-c2cc3ccccc3c3ccccc23)cc1-c1cc2ccccc2c2ccccc12 [Compound M-10] | ◯ | 1.7323 | ◯ |  |  |
| C=CC(=O)OCCOc1ccc(C2(c3ccc(OCCOC(=O)C=C)cc3)c3ccccc3-c3ccccc32)cc1 [9,9-bis[4-(2-acryloyloxyethoxy)phenyl]fluorene] |  |  |  | about 1.62 |  |
| C=C(C)C(=O)OCCNC(=O)OCCOc1c(-c2cc3ccccc3c3ccccc23)cc(-c2cc3ccccc3c3ccccc23)cc1-c1cc2ccccc2c2ccccc12 [Compound M-8] | ◯ | 1.7042 | ◯ |  |  |
| C=CC(=O)OCCOc1c(-c2cccc3c2sc2ccccc23)cc(-c2cccc3c2sc2ccccc23)cc1-c1cccc2c1sc1ccccc12 [Compound R-3, reference compound] |  |  |  |  | — |
| C=C(C)C(=O)OCCNC(=O)Oc1c(-c2cccc3c2sc2ccccc23)cc(-c2cccc3c2sc2ccccc23)cc1-c1cccc2c1sc1ccccc12 [Compound M-1] | ◯ | 1.6818 | ◯ |  |  |
| C=CC(=O)OCCCOc1c(-c2cc3ccccc3c3ccccc23)cc(-c2cc3ccccc3c3ccccc23)cc1-c1cc2ccccc2c2ccccc12 [Compound M-11] | ◯ | 1.7316 | ◯ |  |  |
| C=CC(=O)OCCNC(=O)Oc1c(-c2cccc3c2sc2ccccc23)cc(-c2cccc3c2sc2ccccc23)cc1-c1cccc2c1sc1ccccc12 [Compound M-3] | ◯ | 1.6891 | ◯ |  |  |
| C=CC(=O)OCCCCOc1c(-c2cccc3c2sc2ccccc23)cc(-c2cccc3c2sc2ccccc23)cc1-c1cccc2c1sc1ccccc12 [Compound R-4, reference compound] |  |  |  |  | — |
| C=C(C)C(=O)OCCNC(=O)Oc1c(-c2ccc3ccccc3c2)cc(-c2ccc3ccccc3c2)cc1-c1ccc2ccccc2c1 [Compound M-5] | ◯ | 1.6798 | ◯ |  |  |
| C=C(C)C(=O)OCCOCCNC(=O)Oc1c(-c2cc3ccccc3c3ccccc23)cc(-c2cc3ccccc3c3ccccc23)cc1-c1cc2ccccc2c2ccccc12 [Compound M-6] | ◯ | 1.7013 | ◯ |  |  |
| C=CC(=O)Oc1c(-c2cccc3c2sc2ccccc23)cc(-c2cccc3c2sc2ccccc23)cc1-c1cccc2c1sc1ccccc12 [Compound R-2, reference compound] |  | 1.7056 | Δ |  |  |
| C=CC(=O)OCCNC(=O)OCCOc1c(-c2cc3ccccc3c3ccccc23)cc(-c2cc3ccccc3c3ccccc23)cc1-c1cc2ccccc2c2ccccc12 [Compound M-7] | ◯ | 1.7104 | ◯ |  |  |
| C=CC(=O)OCCNC(=O)Oc1ccc(-c2cccc3c2sc2ccccc23)cc1-c1cccc2c1sc1ccccc12 [Compound R-1, reference compound] |  | 1.6762 | Δ |  |  |
| C=C(C)C(=O)OCCNC(=O)Oc1c(-c2cc3ccccc3c3ccccc23)cc(-c2cc3ccccc3c3ccccc23)cc1-c1cc2ccccc2c2ccccc12 [Compound M-2] | ◯ | 1.6898 | ◯ |  |  |
